Legend:
TrkB V437A = molecular target: T1, TrkB V437A (Rattus norvegicus, UniProt Q63604, V437A); assay: ^3H-LSD saturation binding, TrkB mutant
T1 construct: expressed in transfected cells; host or cells: HEK293T
Protocol: Binding assays were performed as previously described with minor modifications. […] Samples from mouse embryo (E18) brains were also lysed, vortexed, sonicated and centrifuged for binding assays. Plates were then washed with PBS. […] For the competition binding assays with biotinylated R,R-HNK, the amino-biotinylation of R,R-HNK was performed using a commercial kit (Thermo Scientific, EZ-Link NHS-PEG4 Biotinylation Kit, 21455) and the reaction monitored by MS. A mixture of biotinylated R,R-HNK (10 µM) and unlabeled compounds (1 pM to 10 µM) in PBS was added to the 96-well plates containing the immunoprecipitated TrkB and incubated for 1 h at room temperature. […] Luminescence was determined via streptavidin conjugated with horseradish peroxidase (HRP; Thermo Fisher Scientific, 21126; 1:5,000, 1 h at room temperature) in reaction with the Pierce ECL substrate (Thermo Fisher Scientific, 32106). Luminescence from blank wells that contained all reagents but the sample lysates was used to determine nonspecific binding. To obtain the binding curves, results from binding assays were fitted to the equation of specific binding with Hill slope from GraphPad Prism 9.2. To calculate koff values, results were fitted to the equation of dissociation of one phase exponential decay from GraphPad Prism 9.2.

TrkB:PLCγ1 = molecular target: T2, TrkB:PLCγ1 (Rattus norvegicus, UniProt Q63604); assay: ELISA of TrkB:PLCγ1 interaction in neuronal cultures; format: cell-based
T2 construct: endogenous in cells; host or cells: rat cortical neuronal cultures (E18, DIV21)
Protocol: The phosphorylation of TrkB (pY816) and interaction with PLCγ1 were assessed by enzyme-linked immunosorbent assay (ELISA) as previously described[11],[80],[81] with minor modifications. Briefly, white 96-well plates (PerkinElmer, OptiPlate 96F-HB) were precoated with goat anti-TrkB (R&D systems, AF1494; 1:500, overnight, 4 °C) antibody in carbonate buffer (pH 9.8) and blocked with 3% BSA in PBS with 0.1% Tween-20 (PBS-T) for 2 h at room temperature. […] Samples were incubated overnight at 4 °C, and 24 h later plates were washed with PBS-T and incubated with either rabbit anti-phospho-TrkB(Tyr816) (Cell Signaling Technology, 4168S; 1:2,000), rabbit anti-PLCγ1 (Cell Signaling Technologies, 5690S; 1:2,000) or rabbit anti-Trk (Cell Signaling Technologies, 92991; 1:2,000) antibodies overnight at 4 °C. After washing with PBS-T, plates were incubated with HRP-conjugated goat anti-rabbit (Bio-Rad, 170–5046; 1:5,000, 1 h, room temperature) antibody, followed by more washing with PBS-T. Finally, the chemiluminescent signal was read after brief incubation with Pierce ECL substrate (Thermo Fisher Scientific, 32106). Luminescence from blank wells that contained all reagents but the sample lysates was used to determine background signal.

[1] = tested on: dentate granule cells (DGCs); assay: Long-term survival of newborn dentate granule cells (BrdU); format: in vivo, mouse; conditions: for Mean, figure 7b (survival of newborn dentate granule cells): LSD group; for e6h group mean: LSD
Protocol: WT and Y433F^+/− male mice were administered four doses of 5-bromo-2′-deoxyuridine (BrdU, 75 mg kg^−1 per injection, every 2 h) intraperitoneally to tag newborn neurons in the hippocampus and returned to their home cage. […] Four weeks later, animals were intracardially perfused with PBS followed by 4% PFA. Brains were dissected and postfixed with 4% PFA (overnight, 4 °C). Next, brains were transferred to 30% sucrose (0.1% PBS) solution and stored at 4 °C for 48–72 h. Brains were moved into disposable vinyl specimen molds (Sakura, Tissue-Tek Cryomold standard) and covered in Tissue-Tek O.C.T. Compound (Sakura). Trays were placed on dry ice and brains covered once more in TissueTec to ensure full coverage. Once frozen, samples were stored at −80 °C. Brains were sliced coronally at 40 µm thickness, collecting every sixth slice. Slices were stored in cryoprotectant fluid (30% sucrose, 30% ethylene glycol, 1% PVP-40, and 0.05 M PB) in −20 °C until staining. Every third hippocampal slice containing dentate gyrus (DG) was collected for washing with 0.1 M PBS and staining. BrdU immunofluorescence was conducted similarly as previously reported in the literature[28] with modifications. Hippocampal slices were incubated in 2.0 M HCl (30 min, 37 °C) and washed with PBS. Slices were then incubated in 0.1 M borate buffer (pH 8.0) at room temperature for 10 min, followed by further washes in PBS and 1 h incubation in 0.1% PBS blocking buffer (0.5% Triton X-100, 5% normal donkey serum, 5% normal goat serum, 1% BSA and 0.1% gelatin). Sections were incubated with primary antibodies rat anti-BrdU (Abcam, ab6326; 1:200) and mouse anti-NeuN (Millipore, MAB377; 1:1,000) for 48 h at 4 °C with gentle shaking. Slices were then washed with PBS, followed by incubation with secondary antibodies Alexa Fluor 488 donkey anti-rat (Invitrogen, A21208; 1:300) and Alexa Fluor 568 goat-anti-mouse (Invitrogen, A11004; 1:500) for 2 h at room temperature and protected from light. Slices were washed in PBS and PB before mounting with Dako fluorescence mounting medium (Agilent, S302380-2) and slides stored at 4 °C until imaging. A total of eight slices containing both hemispheres and covering the whole DG (every third slice) were imaged with a Zeiss LSM 710 confocal microscope. Fifteen optical sections with a Z-step of 2 µm were acquired per slice with a PlanApochromat 10×/0.45 M27. BrdU^+ and BrdU^+/NeuN^+ cells in the DG were counted manually by experimenters blinded to treatment and genotype using ZEN Blue 3.2. Similarly to Ma et al.[28], we estimated the number of mature neurons (BrdU^+/NeuN^+) in the DG of both hemispheres by multiplying by 6 the total count derived from every third hippocampal slice. The percentage of mature neurons over total BrdU^+ cells in the DG was also calculated.

T1 sequence (Q63604 32-821 V437A): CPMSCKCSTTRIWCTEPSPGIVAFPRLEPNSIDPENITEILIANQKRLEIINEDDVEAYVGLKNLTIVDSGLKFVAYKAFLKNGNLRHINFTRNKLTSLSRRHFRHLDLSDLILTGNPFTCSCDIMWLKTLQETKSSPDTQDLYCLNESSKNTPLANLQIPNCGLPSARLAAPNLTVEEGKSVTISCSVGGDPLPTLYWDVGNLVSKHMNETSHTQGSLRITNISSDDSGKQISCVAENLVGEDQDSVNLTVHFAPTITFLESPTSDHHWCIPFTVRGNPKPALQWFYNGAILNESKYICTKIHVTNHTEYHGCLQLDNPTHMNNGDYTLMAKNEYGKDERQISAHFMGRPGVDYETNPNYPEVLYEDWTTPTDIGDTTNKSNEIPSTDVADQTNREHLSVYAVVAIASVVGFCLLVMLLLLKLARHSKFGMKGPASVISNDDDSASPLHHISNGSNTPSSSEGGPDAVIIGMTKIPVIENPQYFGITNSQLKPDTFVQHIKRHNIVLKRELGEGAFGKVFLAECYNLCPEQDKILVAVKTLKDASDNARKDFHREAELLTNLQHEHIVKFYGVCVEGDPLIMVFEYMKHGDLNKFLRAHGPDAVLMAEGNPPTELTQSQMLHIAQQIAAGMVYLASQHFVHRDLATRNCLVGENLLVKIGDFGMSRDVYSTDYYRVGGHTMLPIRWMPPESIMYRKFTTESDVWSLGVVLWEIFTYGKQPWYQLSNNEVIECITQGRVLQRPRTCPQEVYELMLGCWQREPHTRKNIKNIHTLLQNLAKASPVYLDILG
T2 sequence (Q63604 32-821): as the sequence (Q63604 32-821 V437A) above, with A406V counted along it

## CCN(CC)C(=O)C1C=C2c3cccc4[nH]cc(c34)CC2N(C)C1 (centres unmarked) [LSD, lysergic acid diethylamide]
TrkB V437A
  Bmax (best-fit, 1a): 88.07
  h (best-fit, 1a): 1.581
TrkB V437A; Kd (best-fit, 1a), unit inferred
  Kd: 25.9 nM
TrkB V437A; Kd, ^3H-LSD saturation
  Kd: 25.9 ± 10.6 nM
TrkB:PLCγ1
  TrkB interaction with PLCγ1: increases TrkB interaction with phospholipase C gamma 1 (PLCγ1)
[1]; WT mice, 4 weeks after single administration (0.1 mg kg^−1 i.p.)
  number of surviving DGCs: doubles the number of surviving DGCs
[1]; WT mice
  Mean, figure 7b (survival of newborn dentate granule cells): 315.4
[1]; WT mice, n=7
  e6h group mean: 94.67
[1]; WT mice, saline minus LSD, Bonferroni's multiple comparisons test
  Mean Diff., figure 7b, WT:Saline vs. WT:LSD: -197.8
[1]; WT:Saline vs. WT:LSD, Bonferroni's multiple comparisons test
  e6h Mean Diff. (Saline minus LSD): -4.385
[1]; Y433F+/- mice
  Mean, figure 7b (survival of newborn dentate granule cells): 150
[1]; Y433F+/- mice, n=8
  e6h group mean: 94.59
[1]; Y433F+/- mice, saline minus LSD, Bonferroni's multiple comparisons test
  Mean Diff., figure 7b, Y433F+/-:Saline vs. Y433F+/-:LSD: 9.6
[1]; Y433F+/-:Saline vs. Y433F+/-:LSD, Bonferroni's multiple comparisons test
  e6h Mean Diff. (Saline minus LSD): 3.141
[1]; column mean across WT and Y433F+/- mice
  e6h Predicted (LS) mean of LSD: 94.63
[1]; mean over WT and Y433F+/- mice
  Predicted (LS) mean of LSD, figure 7b: 232.7
[1]; means over WT and Y433F+/- mice
  Difference between predicted means (Saline - LSD), figure 7b: -94.11

Reference: paper PMC10244169, “Psychedelics promote plasticity by directly binding to BDNF receptor TrkB” (Nature Neuroscience, 2023)
